From patent US20240237643A1, “COMPOSITIONS WITH VIRUCIDAL AND/OR ANTIVIRAL ACTIVITY” (priority 2020, published 2024)

How the values were obtained:
Test in all cases: Virucidal activity, quantitative suspension test DIN EN 14476
Format in all cases: cell-based
[1] = test system: Coronavirus (MHV-3)
Method: Testing was conducted over a period of 1 to 10 minutes. Activity against the following viruses was determined: • Coronavirus (MHV-3) • Influenza virus (H1N1) • Herpes simplex virus (HV) • Human respiratory syncytial virus (HRSV)
In this context (+) means that more than 99.99% of all viruses were inactivated; this is equivalent to a reduction factor of 10,000.

[2] = test system: Herpes simplex virus (HV)
[3] = test system: Human respiratory syncytial virus (HRSV)
[4] = test system: Influenza virus (H1N1)
[5] = 33 wt.-percent in water, 10 min
[6] = 0.1 wt.-percent in water, 1 min
[7] = 0.1 wt.-percent in water, 10 min
[8] = 10 wt.-percent in water, 10 min

Structure (SMILES) | Virucidal activity MHV-3 [1, 5] | Virucidal activity HV [2, 5] | Virucidal activity HRSV [3, 5] | Virucidal activity H1N1 [4, 5] | Virucidal activity MHV-3 ([1]; 33 wt.-percent in water, 1 min) | Virucidal activity HV ([2]; 33 wt.-percent in water, 1 min) | Virucidal activity HRSV ([3]; 33 wt.-percent in water, 1 min) | Virucidal activity H1N1 ([4]; 33 wt.-percent in water, 1 min) | Virucidal activity MHV-3 [1, 6] | Virucidal activity MHV-3 [1, 7] | Virucidal activity MHV-3 ([1]; 1 wt.-percent in water, 1 min) | Virucidal activity MHV-3 ([1]; 1 wt.-percent in water, 10 min) | Virucidal activity MHV-3 ([1]; 10 wt.-percent in water, 1 min) | Virucidal activity MHV-3 [1, 8] | Virucidal activity HV [2, 6] | Virucidal activity HV [2, 7] | Virucidal activity HV ([2]; 1 wt.-percent in water, 1 min) | Virucidal activity HV ([2]; 1 wt.-percent in water, 10 min) | Virucidal activity HV ([2]; 10 wt.-percent in water, 1 min) | Virucidal activity HV [2, 8] | further results
CCCCCCC(O)CO (centres unmarked) [1,2-octanediol] | (+) ((+) means that more than 99.99% of all viruses were inactivated; this is equivalent to a reduction factor of 10,000) | (+) ((+) means that more than 99.99% of all viruses were inactivated; this is equivalent to a reduction factor of 10,000) | (+) ((+) means that more than 99.99% of all viruses were inactivated; this is equivalent to a reduction factor of 10,000) | (+) ((+) means that more than 99.99% of all viruses were inactivated; this is equivalent to a reduction factor of 10,000) |  |  |  |  |  |  |  |  |  |  |  |  |  |  |  |  | 
CCCCC(O)CO (centres unmarked) [1,2-hexanediol] |  |  |  |  | (+) ((+) means that more than 99.99% of all viruses were inactivated; this is equivalent to a reduction factor of 10,000) | (+) ((+) means that more than 99.99% of all viruses were inactivated; this is equivalent to a reduction factor of 10,000) | (+) ((+) means that more than 99.99% of all viruses were inactivated; this is equivalent to a reduction factor of 10,000) | (+) ((+) means that more than 99.99% of all viruses were inactivated; this is equivalent to a reduction factor of 10,000) |  |  |  |  |  |  |  |  |  |  |  |  | 
Cc1cc(O)ccc1C(C)C [4-isopropyl-3-methylphenol] |  |  |  |  |  |  |  |  | (+) ((+) means that more than 99.99% of all viruses were inactivated; this is equivalent to a reduction factor of 10,000) | (+) ((+) means that more than 99.99% of all viruses were inactivated; this is equivalent to a reduction factor of 10,000) | (+) ((+) means that more than 99.99% of all viruses were inactivated; this is equivalent to a reduction factor of 10,000) | (+) ((+) means that more than 99.99% of all viruses were inactivated; this is equivalent to a reduction factor of 10,000) | (+) ((+) means that more than 99.99% of all viruses were inactivated; this is equivalent to a reduction factor of 10,000) | (+) ((+) means that more than 99.99% of all viruses were inactivated; this is equivalent to a reduction factor of 10,000) | (+) ((+) means that more than 99.99% of all viruses were inactivated; this is equivalent to a reduction factor of 10,000) | (+) ((+) means that more than 99.99% of all viruses were inactivated; this is equivalent to a reduction factor of 10,000) | (+) ((+) means that more than 99.99% of all viruses were inactivated; this is equivalent to a reduction factor of 10,000) | (+) ((+) means that more than 99.99% of all viruses were inactivated; this is equivalent to a reduction factor of 10,000) | (+) ((+) means that more than 99.99% of all viruses were inactivated; this is equivalent to a reduction factor of 10,000) | (+) ((+) means that more than 99.99% of all viruses were inactivated; this is equivalent to a reduction factor of 10,000) | Virucidal activity HRSV [3, 6]: (+) ((+) means that more than 99.99% of all viruses were inactivated; this is equivalent to a reduction factor of 10,000); Virucidal activity HRSV [3, 7]: (+) ((+) means that more than 99.99% of all viruses were inactivated; this is equivalent to a reduction factor of 10,000); Virucidal activity HRSV ([3]; 1 wt.-percent in water, 1 min): (+) ((+) means that more than 99.99% of all viruses were inactivated; this is equivalent to a reduction factor of 10,000); Virucidal activity HRSV ([3]; 1 wt.-percent in water, 10 min): (+) ((+) means that more than 99.99% of all viruses were inactivated; this is equivalent to a reduction factor of 10,000); Virucidal activity HRSV ([3]; 10 wt.-percent in water, 1 min): (+) ((+) means that more than 99.99% of all viruses were inactivated; this is equivalent to a reduction factor of 10,000); Virucidal activity HRSV [3, 8]: (+) ((+) means that more than 99.99% of all viruses were inactivated; this is equivalent to a reduction factor of 10,000); Virucidal activity H1N1 [4, 6]: (+) ((+) means that more than 99.99% of all viruses were inactivated; this is equivalent to a reduction factor of 10,000); Virucidal activity H1N1 [4, 7]: (+) ((+) means that more than 99.99% of all viruses were inactivated; this is equivalent to a reduction factor of 10,000); Virucidal activity H1N1 ([4]; 1 wt.-percent in water, 1 min): (+) ((+) means that more than 99.99% of all viruses were inactivated; this is equivalent to a reduction factor of 10,000); Virucidal activity H1N1 ([4]; 1 wt.-percent in water, 10 min): (+) ((+) means that more than 99.99% of all viruses were inactivated; this is equivalent to a reduction factor of 10,000); Virucidal activity H1N1 ([4]; 10 wt.-percent in water, 1 min): (+) ((+) means that more than 99.99% of all viruses were inactivated; this is equivalent to a reduction factor of 10,000); Virucidal activity H1N1 [4, 8]: (+) ((+) means that more than 99.99% of all viruses were inactivated; this is equivalent to a reduction factor of 10,000)
CCCC(O)CO (centres unmarked) [1,2-pentanediol] | (+) ((+) means that more than 99.99% of all viruses were inactivated; this is equivalent to a reduction factor of 10,000) | (+) ((+) means that more than 99.99% of all viruses were inactivated; this is equivalent to a reduction factor of 10,000) | (+) ((+) means that more than 99.99% of all viruses were inactivated; this is equivalent to a reduction factor of 10,000) | (+) ((+) means that more than 99.99% of all viruses were inactivated; this is equivalent to a reduction factor of 10,000) | (+) ((+) means that more than 99.99% of all viruses were inactivated; this is equivalent to a reduction factor of 10,000) | (+) ((+) means that more than 99.99% of all viruses were inactivated; this is equivalent to a reduction factor of 10,000) | (+) ((+) means that more than 99.99% of all viruses were inactivated; this is equivalent to a reduction factor of 10,000) | (+) ((+) means that more than 99.99% of all viruses were inactivated; this is equivalent to a reduction factor of 10,000) |  |  |  |  |  |  |  |  |  |  |  |  | Virucidal activity MHV-3 ([1]; 33 wt.-percent in water, 5 min): (+) ((+) means that more than 99.99% of all viruses were inactivated; this is equivalent to a reduction factor of 10,000); Virucidal activity HV ([2]; 33 wt.-percent in water, 5 min): (+) ((+) means that more than 99.99% of all viruses were inactivated; this is equivalent to a reduction factor of 10,000); Virucidal activity HRSV ([3]; 33 wt.-percent in water, 5 min): (+) ((+) means that more than 99.99% of all viruses were inactivated; this is equivalent to a reduction factor of 10,000); Virucidal activity H1N1 ([4]; 33 wt.-percent in water, 5 min): (+) ((+) means that more than 99.99% of all viruses were inactivated; this is equivalent to a reduction factor of 10,000)
CCCCCCCCC(O)CO (centres unmarked) [1,2-decanediol] |  |  |  |  |  |  |  |  | (+) ((+) means that more than 99.99% of all viruses were inactivated; this is equivalent to a reduction factor of 10,000) | (+) ((+) means that more than 99.99% of all viruses were inactivated; this is equivalent to a reduction factor of 10,000) | (+) ((+) means that more than 99.99% of all viruses were inactivated; this is equivalent to a reduction factor of 10,000) | (+) ((+) means that more than 99.99% of all viruses were inactivated; this is equivalent to a reduction factor of 10,000) | (+) ((+) means that more than 99.99% of all viruses were inactivated; this is equivalent to a reduction factor of 10,000) | (+) ((+) means that more than 99.99% of all viruses were inactivated; this is equivalent to a reduction factor of 10,000) | (+) ((+) means that more than 99.99% of all viruses were inactivated; this is equivalent to a reduction factor of 10,000) | (+) ((+) means that more than 99.99% of all viruses were inactivated; this is equivalent to a reduction factor of 10,000) | (+) ((+) means that more than 99.99% of all viruses were inactivated; this is equivalent to a reduction factor of 10,000) | (+) ((+) means that more than 99.99% of all viruses were inactivated; this is equivalent to a reduction factor of 10,000) | (+) ((+) means that more than 99.99% of all viruses were inactivated; this is equivalent to a reduction factor of 10,000) | (+) ((+) means that more than 99.99% of all viruses were inactivated; this is equivalent to a reduction factor of 10,000) | Virucidal activity HRSV [3, 6]: (+) ((+) means that more than 99.99% of all viruses were inactivated; this is equivalent to a reduction factor of 10,000); Virucidal activity HRSV [3, 7]: (+) ((+) means that more than 99.99% of all viruses were inactivated; this is equivalent to a reduction factor of 10,000); Virucidal activity HRSV ([3]; 1 wt.-percent in water, 1 min): (+) ((+) means that more than 99.99% of all viruses were inactivated; this is equivalent to a reduction factor of 10,000); Virucidal activity HRSV ([3]; 1 wt.-percent in water, 10 min): (+) ((+) means that more than 99.99% of all viruses were inactivated; this is equivalent to a reduction factor of 10,000); Virucidal activity HRSV ([3]; 10 wt.-percent in water, 1 min): (+) ((+) means that more than 99.99% of all viruses were inactivated; this is equivalent to a reduction factor of 10,000); Virucidal activity HRSV [3, 8]: (+) ((+) means that more than 99.99% of all viruses were inactivated; this is equivalent to a reduction factor of 10,000); Virucidal activity H1N1 [4, 6]: (+) ((+) means that more than 99.99% of all viruses were inactivated; this is equivalent to a reduction factor of 10,000); Virucidal activity H1N1 [4, 7]: (+) ((+) means that more than 99.99% of all viruses were inactivated; this is equivalent to a reduction factor of 10,000); Virucidal activity H1N1 ([4]; 1 wt.-percent in water, 1 min): (+) ((+) means that more than 99.99% of all viruses were inactivated; this is equivalent to a reduction factor of 10,000); Virucidal activity H1N1 ([4]; 1 wt.-percent in water, 10 min): (+) ((+) means that more than 99.99% of all viruses were inactivated; this is equivalent to a reduction factor of 10,000); Virucidal activity H1N1 ([4]; 10 wt.-percent in water, 1 min): (+) ((+) means that more than 99.99% of all viruses were inactivated; this is equivalent to a reduction factor of 10,000); Virucidal activity H1N1 [4, 8]: (+) ((+) means that more than 99.99% of all viruses were inactivated; this is equivalent to a reduction factor of 10,000)
